From EP4635958A1, “PYRIMIDINE-CONTAINING POLYCYCLIC DERIVATIVE INHIBITOR, AND PREPARATION METHOD THEREFOR AND USE THEREOF” (Shanghai Hansoh Biomedical Co., Ltd., priority 2022, dated 2024)

Columns and labels:
[1] = Plasma stability test, mouse plasma; assay type: in vitro ADME; conditions: mouse, plasma;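 further: test compound quantified by LC-MS using positive-mode electrospray ionization and MRM scanning, with an internal standard added in acetonitrile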
Protocol: (§1) Liquid chromatography-mass spectrometer, centrifuge, vortexer, pipette, continuous dispenser, 96-well plate, 50% methanol aqueous solution, acetonitrile solution containing internal standard, blank matrix (plasma of rat, dog, or human), Propantheline (propantheline bromide), Mevinolin (lovastatin), and test compound.
(§2) After whole blood was collected from animals or humans, it was placed in a test tube containing an anticoagulant and centrifuged at 3500 rpm for 10 min to collect the upper pale yellow plasma.
(§3) The compound was weighed and the stock solution was formulated with DMSO and the working solution was formulated with 100 mM phosphate buffer.
(§4) • Instrument: API4000 liquid chromatography-mass spectrometer, AB Company, USA; • the ion source was electrospray ionization source (ESI); • drying gas (N2) temperature was 500°C; • electrospray voltage was 5500V; • the detection method was positive ion detection; • the scanning method was selected reaction monitoring (MRM); • the scanning time was 0.1s.

[2] = Plasma stability test, dog plasma; assay type: in vitro ADME; conditions: dog, plasma;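 further: parent compound left in dog plasma quantified by LC-MS with positive electrospray ionization, selected reaction monitoring and an internal standard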
Protocol: as §1, §2, §3, §4

[3] = Plasma stability test, human plasma; assay type: in vitro ADME; conditions: human, plasma;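 further: test compound incubated in human plasma, quantified by LC-MS/MS (positive-ion ESI, MRM) against an internal standard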
Protocol: as §1, §2, §3, §4

GP2D = experiment: Inhibition of proliferation of KRAS G12D mutant tumor cell line GP2D (CellTiter-Glo); conditions: Homo sapiens, GP2d, 72 h, read-out: GP2D IC50

With CC(C)[N+](C)(CCOC(=O)C1c2ccccc2Oc2ccccc21)C(C)C [Propantheline bromide, propantheline bromide, reference compound] the half-life [1] was 27.7 min, the “Remaining rate (%) 0 min” value ([1]; 0 h) was 100.00% and the “Remaining rate (%) 15 min” value ([1]; 0.25 h) was 79.79%. The “Remaining rate (%) 30 min” value ([1]; 0.5 h) was 48.66%, the “Remaining rate (%) 60 min” value ([1]; 1 h) was 23.39% and the “Remaining rate (%) 120 min” value ([1]; 2 h) was 6.66%. The half-life [2] was 80.2 min, the “Remaining rate (%) 0 min” value ([2]; 0 h) was 100.00% and the “Remaining rate (%) 15 min” value ([2]; 0.25 h) was 95.25%. For the same molecule, the “Remaining rate (%) 30 min” value ([2]; 0.5 h) was 95.45%, the “Remaining rate (%) 60 min” value ([2]; 1 h) was 75.66% and the “Remaining rate (%) 120 min” value ([2]; 2 h) was 36.25%. The half-life [3] was 16.2 min, the “Remaining rate (%) 0 min” value ([3]; 0 h) was 100.00% and the “Remaining rate (%) 15 min” value ([3]; 0.25 h) was 26.78%. The “Remaining rate (%) 30 min” value ([3]; 0.5 h) was 5.05%, the “Remaining rate (%) 60 min” value ([3]; 1 h) was 0.25% and the “Remaining rate (%) 120 min” value ([3]; 2 h) was 0.05%.

Molecule [2H]C([2H])([2H])[C@@H]1Oc2nc(-c3cc(O)cc4ccc(F)c(C#C)c34)c(F)c3nc(OC([2H])([2H])C4(C([2H])([2H])N5CCC(=CF)CC5)CC4)nc(c23)N2C[C@H]3CC[C@H](N3)[C@@H]12 [Example 298] has an IC50 (GP2D) of 0.28 nM.

Molecule C#Cc1c(F)ccc2cc(O)cc(-c3nc4c5c(nc(OCC6(CN7CCC(=NOC)C8(CC8)C7)CC6)nc5c3F)N3C[C@H]5CC[C@H](N5)[C@H]3[C@H](C)O4)c12 [Example 342, 5-((1-((((5S,5aS,6S,9R)-2-(8-ethynyl-7-fluoro-3-hydroxynaphthalen-1-yl)-1-fluoro-5-methyl-5a,6,7,8,9,10-hexahydro-5H-4-oxa-3,10a,11,13,14-pentaaza-6,9-methylnaphtho[1,8-ab]heptene-12-yl)oxy)methyl)cyclopropyl)methyl)-5-azaspiro[2.5]octan-8-one O-methyloxime] has an IC50 (GP2D) of 0.41 nM.

Molecule C#Cc1c(F)ccc2cc(O)cc(-c3nc4c5c(nc(OCC6(CN7CC8CCC7CC8=NOC)CC6)nc5c3F)N3C[C@H]5CC[C@H](N5)[C@H]3[C@H](C)O4)c12 [Example 345] has an IC50 (GP2D) of 0.18 nM.

Molecule C#Cc1c(F)ccc2cc(O)cc(-c3nc4c5c(nc(OCC6(CN7C8CCC7CC(=C(F)F)C8)CC6)nc5c3F)N3C[C@H]5CC[C@H](N5)[C@H]3[C@H](C)O4)c12 [Example 134] has an IC50 (GP2D) of 1 nM.
